In ChEMBL document CHEMBL5465560, “Selectivity Literature for EUbOPEN Chemogenomic Library” (2024):
Values belong to the molecule of their own block, whether it stands above or below them.

Columns and labels:
[1] = target: Rho-associated protein kinase 2 (Homo sapiens, UniProt O75116); test: Selectivity interaction (KinomeScan (DiscoverX)) EUB0000655a ROCK2; settings: at 10 µM
[2] = target: Casein kinase II subunit alpha' (Homo sapiens) (UniProt P19784); test: Selectivity interaction (KinomeScan (DiscoverX)) EUB0000618a CSNK2A2; settings: at 10 µM
Chain of Casein kinase II subunit alpha' (Homo sapiens) (P19784 whole entry, looked up): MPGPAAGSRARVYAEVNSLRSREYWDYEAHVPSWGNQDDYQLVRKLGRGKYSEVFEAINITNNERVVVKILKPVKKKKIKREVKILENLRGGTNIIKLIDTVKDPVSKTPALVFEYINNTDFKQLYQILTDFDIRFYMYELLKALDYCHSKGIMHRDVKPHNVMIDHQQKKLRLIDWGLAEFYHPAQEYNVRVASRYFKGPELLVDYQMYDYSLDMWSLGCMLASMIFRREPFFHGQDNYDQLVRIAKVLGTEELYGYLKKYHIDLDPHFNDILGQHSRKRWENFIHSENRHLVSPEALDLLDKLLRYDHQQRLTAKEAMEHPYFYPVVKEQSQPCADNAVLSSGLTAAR

[3] = target: T1, Phosphatidylinositol 5-phosphate 4-kinase type-2 beta (Homo sapiens) (UniProt P78356); test: Selectivity interaction (KinomeScan (DiscoverX)) EUB0000607a PIP4K2B; settings: at 10 µM
T1 sequence (whole entry): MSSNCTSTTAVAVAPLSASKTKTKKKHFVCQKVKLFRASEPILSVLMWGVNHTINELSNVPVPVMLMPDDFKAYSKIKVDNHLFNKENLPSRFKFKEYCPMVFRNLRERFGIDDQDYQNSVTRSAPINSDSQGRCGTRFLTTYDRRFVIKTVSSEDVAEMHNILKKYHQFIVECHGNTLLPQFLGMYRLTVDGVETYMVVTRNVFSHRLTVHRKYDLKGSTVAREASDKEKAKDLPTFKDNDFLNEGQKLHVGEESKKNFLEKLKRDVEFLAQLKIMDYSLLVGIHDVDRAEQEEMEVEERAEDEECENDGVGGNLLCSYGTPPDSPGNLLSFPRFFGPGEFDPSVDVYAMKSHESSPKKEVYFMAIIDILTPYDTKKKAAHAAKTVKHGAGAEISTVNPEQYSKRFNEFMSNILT

[4] = target: T2, Serine/threonine-protein kinase D3 (Homo sapiens) (UniProt O94806); test: Selectivity interaction (ActivX KiNativ screen (kinase selectivity in THP-1 cell lysates)) EUB0000639a PRKD3; format: subcellular; settings: lysate, at 1 µM
T2 sequence (whole entry): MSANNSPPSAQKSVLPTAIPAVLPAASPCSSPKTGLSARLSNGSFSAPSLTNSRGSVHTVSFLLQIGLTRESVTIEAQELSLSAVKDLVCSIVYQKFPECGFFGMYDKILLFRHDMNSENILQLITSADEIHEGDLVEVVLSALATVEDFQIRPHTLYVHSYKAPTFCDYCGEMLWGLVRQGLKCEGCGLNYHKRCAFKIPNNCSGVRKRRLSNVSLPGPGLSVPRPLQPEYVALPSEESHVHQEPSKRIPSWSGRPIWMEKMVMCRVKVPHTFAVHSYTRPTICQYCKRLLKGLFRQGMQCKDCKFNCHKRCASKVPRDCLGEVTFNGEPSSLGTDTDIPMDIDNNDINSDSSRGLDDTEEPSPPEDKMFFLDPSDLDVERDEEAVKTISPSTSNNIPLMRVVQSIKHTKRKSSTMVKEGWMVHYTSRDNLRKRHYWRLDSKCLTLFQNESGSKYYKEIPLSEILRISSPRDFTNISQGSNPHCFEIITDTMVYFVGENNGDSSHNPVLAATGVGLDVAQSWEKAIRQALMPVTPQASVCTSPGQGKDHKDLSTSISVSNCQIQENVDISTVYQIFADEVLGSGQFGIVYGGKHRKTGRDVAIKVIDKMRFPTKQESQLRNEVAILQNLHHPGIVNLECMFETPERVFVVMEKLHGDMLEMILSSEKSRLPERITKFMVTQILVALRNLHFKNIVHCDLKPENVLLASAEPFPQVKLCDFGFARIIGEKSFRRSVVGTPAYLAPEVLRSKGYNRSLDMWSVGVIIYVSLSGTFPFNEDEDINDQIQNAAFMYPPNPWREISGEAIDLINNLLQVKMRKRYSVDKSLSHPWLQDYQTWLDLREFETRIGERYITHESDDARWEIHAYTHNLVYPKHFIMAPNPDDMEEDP

[5] = target: Tyrosine-protein kinase CSK (Homo sapiens) (UniProt P41240); test: Selectivity interaction (ActivX KiNativ screen (kinase selectivity in THP-1 cell lysates)) EUB0000639a CSK; format: subcellular; settings: lysate, at 5 µM
Chain of Tyrosine-protein kinase CSK (Homo sapiens) (P41240 2-450 limits assumed): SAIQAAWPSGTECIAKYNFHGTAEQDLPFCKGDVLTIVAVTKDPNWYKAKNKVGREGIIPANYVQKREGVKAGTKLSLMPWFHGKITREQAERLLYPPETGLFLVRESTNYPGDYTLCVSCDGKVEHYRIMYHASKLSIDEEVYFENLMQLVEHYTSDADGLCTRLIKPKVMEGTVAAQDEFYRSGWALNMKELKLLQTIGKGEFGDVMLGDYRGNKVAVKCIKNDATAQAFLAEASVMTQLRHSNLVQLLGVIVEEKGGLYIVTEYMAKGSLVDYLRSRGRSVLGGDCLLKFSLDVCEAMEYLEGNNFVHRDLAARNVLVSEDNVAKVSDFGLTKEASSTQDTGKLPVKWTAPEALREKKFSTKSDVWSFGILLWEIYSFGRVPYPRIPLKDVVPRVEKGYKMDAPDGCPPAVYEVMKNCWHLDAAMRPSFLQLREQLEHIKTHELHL

[6] = target: Cyclin-dependent kinase 16 (Homo sapiens) (UniProt Q00536); test: Selectivity interaction (KinomeScan (DiscoverX)) EUB0000229b CDK16; settings: at 10 µM
Chain of Cyclin-dependent kinase 16 (Homo sapiens) (Q00536 whole entry): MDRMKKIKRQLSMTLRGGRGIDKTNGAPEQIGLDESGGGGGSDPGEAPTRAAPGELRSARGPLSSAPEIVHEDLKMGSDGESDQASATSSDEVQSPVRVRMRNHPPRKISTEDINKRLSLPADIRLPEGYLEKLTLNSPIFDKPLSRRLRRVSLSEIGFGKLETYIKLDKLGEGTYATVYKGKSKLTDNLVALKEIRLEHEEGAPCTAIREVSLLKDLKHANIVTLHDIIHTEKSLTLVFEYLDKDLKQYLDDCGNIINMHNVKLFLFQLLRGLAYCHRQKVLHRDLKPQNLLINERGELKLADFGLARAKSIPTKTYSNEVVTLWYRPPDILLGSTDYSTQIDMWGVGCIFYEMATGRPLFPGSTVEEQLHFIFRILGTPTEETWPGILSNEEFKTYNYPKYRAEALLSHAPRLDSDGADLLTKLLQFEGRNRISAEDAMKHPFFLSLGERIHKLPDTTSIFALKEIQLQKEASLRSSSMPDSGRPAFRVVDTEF

[7] = target: T3, Myosin-IIIb (Homo sapiens) (UniProt Q8WXR4); test: Selectivity interaction (KinomeScan (DiscoverX)) EUB0000092b MYO3B; settings: at 10 µM
T3 sequence (whole entry): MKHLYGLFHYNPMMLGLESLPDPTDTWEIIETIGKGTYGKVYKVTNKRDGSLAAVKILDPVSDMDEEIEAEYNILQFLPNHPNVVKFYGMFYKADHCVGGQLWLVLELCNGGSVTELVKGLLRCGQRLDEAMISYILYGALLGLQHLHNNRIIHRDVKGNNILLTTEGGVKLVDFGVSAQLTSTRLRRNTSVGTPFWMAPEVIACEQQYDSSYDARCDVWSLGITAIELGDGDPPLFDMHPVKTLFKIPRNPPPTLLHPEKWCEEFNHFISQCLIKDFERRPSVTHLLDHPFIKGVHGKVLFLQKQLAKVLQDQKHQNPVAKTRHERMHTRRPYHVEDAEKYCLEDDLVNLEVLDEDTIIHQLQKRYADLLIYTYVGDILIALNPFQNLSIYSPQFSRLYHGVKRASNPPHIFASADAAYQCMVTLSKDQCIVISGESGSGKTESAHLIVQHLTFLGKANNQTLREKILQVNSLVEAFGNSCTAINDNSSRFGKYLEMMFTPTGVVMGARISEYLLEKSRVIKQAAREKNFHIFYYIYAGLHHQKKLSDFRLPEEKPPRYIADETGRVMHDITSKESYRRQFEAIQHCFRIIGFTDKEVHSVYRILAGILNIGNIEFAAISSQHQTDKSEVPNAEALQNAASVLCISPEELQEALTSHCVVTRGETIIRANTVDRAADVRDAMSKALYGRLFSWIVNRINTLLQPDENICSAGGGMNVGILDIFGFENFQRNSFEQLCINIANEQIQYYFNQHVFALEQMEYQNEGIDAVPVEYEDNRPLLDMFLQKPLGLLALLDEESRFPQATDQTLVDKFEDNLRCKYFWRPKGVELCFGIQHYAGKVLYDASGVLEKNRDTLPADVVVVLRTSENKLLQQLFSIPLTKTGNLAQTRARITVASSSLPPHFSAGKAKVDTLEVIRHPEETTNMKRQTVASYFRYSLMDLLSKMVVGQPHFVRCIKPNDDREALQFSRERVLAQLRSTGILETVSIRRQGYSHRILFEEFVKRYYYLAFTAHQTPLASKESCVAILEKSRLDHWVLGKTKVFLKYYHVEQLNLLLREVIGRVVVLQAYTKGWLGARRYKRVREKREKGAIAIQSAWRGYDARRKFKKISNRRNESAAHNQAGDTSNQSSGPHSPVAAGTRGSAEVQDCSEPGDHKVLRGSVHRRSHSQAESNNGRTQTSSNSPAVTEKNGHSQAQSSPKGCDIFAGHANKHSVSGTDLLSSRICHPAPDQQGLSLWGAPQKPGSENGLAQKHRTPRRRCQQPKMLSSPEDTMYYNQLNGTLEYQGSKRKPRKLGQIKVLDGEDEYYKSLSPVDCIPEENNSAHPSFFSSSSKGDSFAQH

Chain of Rho-associated protein kinase 2 (O75116 whole entry, looked up): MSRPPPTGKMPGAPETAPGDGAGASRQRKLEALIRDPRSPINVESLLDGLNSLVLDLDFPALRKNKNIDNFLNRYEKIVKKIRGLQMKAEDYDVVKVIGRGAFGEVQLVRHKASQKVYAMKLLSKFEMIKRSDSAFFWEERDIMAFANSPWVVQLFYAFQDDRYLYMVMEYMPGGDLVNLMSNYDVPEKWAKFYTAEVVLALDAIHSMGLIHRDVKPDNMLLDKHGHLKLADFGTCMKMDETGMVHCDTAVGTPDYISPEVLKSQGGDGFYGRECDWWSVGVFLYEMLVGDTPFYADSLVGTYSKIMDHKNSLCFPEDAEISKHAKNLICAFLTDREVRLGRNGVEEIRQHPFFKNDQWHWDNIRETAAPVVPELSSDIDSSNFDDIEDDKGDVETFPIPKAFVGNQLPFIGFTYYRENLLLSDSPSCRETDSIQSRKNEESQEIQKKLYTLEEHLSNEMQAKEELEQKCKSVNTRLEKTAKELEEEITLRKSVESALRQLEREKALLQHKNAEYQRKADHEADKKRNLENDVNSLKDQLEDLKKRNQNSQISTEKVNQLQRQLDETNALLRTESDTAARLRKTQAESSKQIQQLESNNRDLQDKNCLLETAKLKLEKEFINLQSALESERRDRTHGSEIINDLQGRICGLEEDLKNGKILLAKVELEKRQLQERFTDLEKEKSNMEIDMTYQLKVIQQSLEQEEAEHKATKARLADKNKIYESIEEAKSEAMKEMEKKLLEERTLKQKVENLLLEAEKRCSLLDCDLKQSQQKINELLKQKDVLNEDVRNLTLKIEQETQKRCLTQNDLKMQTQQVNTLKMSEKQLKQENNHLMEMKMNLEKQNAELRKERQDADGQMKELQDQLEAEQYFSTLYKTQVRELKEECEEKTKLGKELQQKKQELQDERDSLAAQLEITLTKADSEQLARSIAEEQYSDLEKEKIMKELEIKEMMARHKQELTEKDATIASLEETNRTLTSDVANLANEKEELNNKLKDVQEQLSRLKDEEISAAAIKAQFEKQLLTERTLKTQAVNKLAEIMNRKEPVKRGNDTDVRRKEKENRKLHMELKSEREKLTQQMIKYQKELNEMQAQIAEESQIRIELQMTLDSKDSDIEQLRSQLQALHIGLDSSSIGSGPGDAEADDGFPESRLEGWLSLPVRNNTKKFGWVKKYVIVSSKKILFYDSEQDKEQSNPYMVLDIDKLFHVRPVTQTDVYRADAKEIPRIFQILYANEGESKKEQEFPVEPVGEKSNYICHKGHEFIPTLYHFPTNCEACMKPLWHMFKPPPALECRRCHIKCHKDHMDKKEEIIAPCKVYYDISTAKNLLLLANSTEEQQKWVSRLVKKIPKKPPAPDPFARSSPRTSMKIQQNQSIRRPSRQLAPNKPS

SMILES: CN(C)CCOc1ccc(-c2nc(-c3ccncc3)c(-c3ccc4c(c3)CC/C4=N\O)[nH]2)cc1
% of control [1]: 47%

SMILES: O[C@H]1CC[C@H](Nc2ncc3nc(Nc4c(F)cc(F)cc4F)n([C@H]4CCOC4)c3n2)CC1
% of control [2]: 96%

SMILES: CNC(=O)Nc1ccc(-c2nc(N3CC4CCC(C3)O4)c3cnn(C4CCC5(CC4)OCCO5)c3n2)cc1
% of control [3]: 100%

% of inhibition [4]: 1.2%
% of inhibition [5]: -2.6%
SMILES: CC[C@@H]1[C@H](F)C(=O)N[C@@H]1COc1nccc2cc(C(N)=O)c(OC)cc12 [ZIMLOVISERTIB]

SMILES: COc1cc(N(C)c2ccnc3ccc(C(F)(F)F)cc23)cc(OC)c1OC
% binding [6]: 85%

SMILES: CCC(=O)N1CCN(c2ccc(-n3c(=O)ccc4cnc5ccc(-c6cnc7ccccc7c6)cc5c43)cc2C(F)(F)F)CC1
% of control [7]: 100%
